Reference: the supplement of paper PMC13380429

Tests used:
Settings in all cases: 72 h
[1] = system: HepG2; experiment: drug sensitivity score (DSS) for viability; higher = more toxic; extreme values may be limits of the assay
[2] = system: U2OS; experiment: as above
[3] = system: Vero E6; experiment: as above
[4] = system: Caco-2; experiment: as above
[5] = system: Calu-3; experiment: as above
[6] = system: HepG2; experiment: relative viability EC50 (midpoint between 100% and the lowest measured viability); higher = less toxic
[7] = system: U2OS; experiment: as above
[8] = system: Vero E6; experiment: as above
[9] = system: Caco-2; experiment: as above
[10] = system: Calu-3; experiment: as above
[11] = system: HepG2; experiment: cell viability relative to DMSO; higher = less toxic
[12] = system: U2OS; experiment: as above
[13] = system: Vero E6; experiment: as above
[14] = system: Caco-2; experiment: as above
[15] = system: Calu-3; experiment: as above

Q: For `CO[C@@H](C)Cn1c(=O)n(C)c2cnc3ccc(-c4cncc(C(C)(C)O)c4)cc3c21`, which drug sensitivity score [1] is on record?
A: 9.8

Q: And the drug sensitivity score [2]?
A: 15.7

Q: And the drug sensitivity score [3]?
A: 10.2

Q: And the drug sensitivity score [4]?
A: 14

Q: What about the drug sensitivity score [5] of the same compound?
A: 17.4

Q: And the “relative viability EC50” value [6]?
A: 0.974 µM

Q: And the “relative viability EC50” value [7]?
A: 0.331 µM

Q: And the “relative viability EC50” value [8]?
A: 0.514 µM

Q: And the “relative viability EC50” value [9]?
A: 0.238 µM

Q: And the “relative viability EC50” value [10]?
A: 0.144 µM

Q: And the cell viability ([11]; 1 nM)?
A: 94.4%

Q: What about the cell viability ([11]; 10 nM) of the same compound?
A: 99.7%

Q: What about the cell viability ([11]; 100 nM) of the same compound?
A: 95.8%

Q: And the cell viability ([11]; 1000 nM)?
A: 56.9%

Q: And the cell viability ([11]; 10000 nM)?
A: 14.8%

Q: And the cell viability ([12]; 1 nM)?
A: 108%

Q: What about the cell viability ([12]; 10 nM) of the same compound?
A: 102%

Q: What about the cell viability ([12]; 100 nM) of the same compound?
A: 84%

Q: What about the cell viability ([12]; 1000 nM) of the same compound?
A: 25.7%

Q: What about the cell viability ([12]; 10000 nM) of the same compound?
A: 8.3%

Q: What about the cell viability ([13]; 1 nM) of the same compound?
A: 96.4%

Q: And the cell viability ([13]; 10 nM)?
A: 101%

Q: What about the cell viability ([13]; 100 nM) of the same compound?
A: 87.2%

Q: And the cell viability ([13]; 1000 nM)?
A: 54.3%

Q: What about the cell viability ([13]; 10000 nM) of the same compound?
A: 28.9%

Q: What about the cell viability ([14]; 1 nM) of the same compound?
A: 97.2%

Q: And the cell viability ([14]; 10 nM)?
A: 93.4%

Q: And the cell viability ([14]; 100 nM)?
A: 82.4%

Q: And the cell viability ([14]; 1000 nM)?
A: 35.6%

Q: What about the cell viability ([14]; 10000 nM) of the same compound?
A: 25.9%

Q: And the cell viability ([15]; 1 nM)?
A: 108%

Q: And the cell viability ([15]; 10 nM)?
A: 89.8%

Q: And the cell viability ([15]; 100 nM)?
A: 68%

Q: What about the cell viability ([15]; 1000 nM) of the same compound?
A: 26.9%

Q: What about the cell viability ([15]; 10000 nM) of the same compound?
A: 18%

Q: How did the drug sensitivity score [1] turn out when `COc1cc(N2CCC(N(C)C)CC2)ccc1Nc1ncc(Cl)c(Nc2ccccc2P(C)(C)=O)n1` was run?
A: 9.2

Q: And the drug sensitivity score [2]?
A: 8.2

Q: What about the drug sensitivity score [3] of the same compound?
A: 4.1

Q: What about the drug sensitivity score [4] of the same compound?
A: 5.6

Q: And the drug sensitivity score [5]?
A: 10.9

Q: What about the “relative viability EC50” value [6] of the same compound?
A: 1.11 µM

Q: What about the “relative viability EC50” value [7] of the same compound?
A: 1.9 µM

Q: And the “relative viability EC50” value [8]?
A: 3.17 µM

Q: What about the “relative viability EC50” value [9] of the same compound?
A: 1.37 µM

Q: What about the “relative viability EC50” value [10] of the same compound?
A: 0.943 µM

Q: And the cell viability ([11]; 1 nM)?
A: 105%

Q: And the cell viability ([11]; 10 nM)?
A: 107%

Q: And the cell viability ([11]; 100 nM)?
A: 92.9%

Q: What about the cell viability ([11]; 1000 nM) of the same compound?
A: 61.3%

Q: And the cell viability ([11]; 10000 nM)?
A: 14.4%

Q: What about the cell viability ([12]; 1 nM) of the same compound?
A: 98.2%

Q: What about the cell viability ([12]; 10 nM) of the same compound?
A: 100%

Q: And the cell viability ([12]; 100 nM)?
A: 102%

Q: And the cell viability ([12]; 1000 nM)?
A: 83.4%

Q: And the cell viability ([12]; 10000 nM)?
A: 0.5%

Q: What about the cell viability ([13]; 1 nM) of the same compound?
A: 101%

Q: What about the cell viability ([13]; 10 nM) of the same compound?
A: 105%

Q: What about the cell viability ([13]; 100 nM) of the same compound?
A: 103%

Q: What about the cell viability ([13]; 1000 nM) of the same compound?
A: 100%

Q: And the cell viability ([13]; 10000 nM)?
A: 25.6%

Q: What about the cell viability ([14]; 1 nM) of the same compound?
A: 93.9%

Q: What about the cell viability ([14]; 10 nM) of the same compound?
A: 95.2%

Q: What about the cell viability ([14]; 100 nM) of the same compound?
A: 94.8%

Q: And the cell viability ([14]; 1000 nM)?
A: 79.4%

Q: And the cell viability ([14]; 10000 nM)?
A: 41.9%

Q: What about the cell viability ([15]; 1 nM) of the same compound?
A: 97.9%

Q: What about the cell viability ([15]; 10 nM) of the same compound?
A: 97.2%

Q: And the cell viability ([15]; 100 nM)?
A: 93.8%

Q: What about the cell viability ([15]; 1000 nM) of the same compound?
A: 51.7%

Q: What about the cell viability ([15]; 10000 nM) of the same compound?
A: 5.6%

Q: What does the source list for `COc1ccc(CNC(=O)c2sc3nc(C)cc(C)c3c2N)cc1`?
A: drug sensitivity score [1]: 0; drug sensitivity score [2]: 0; drug sensitivity score [3]: 0; drug sensitivity score [4]: 0; drug sensitivity score [5]: 0; relative viability EC50 [6]: > 10 µM; relative viability EC50 [7]: > 10 µM; relative viability EC50 [8]: > 10 µM; relative viability EC50 [9]: > 10 µM; relative viability EC50 [10]: > 10 µM; cell viability ([11]; 1 nM): 83.3%; cell viability ([11]; 10 nM): 94.4%; cell viability ([11]; 100 nM): 93.9%; cell viability ([11]; 1000 nM): 91.9%; cell viability ([11]; 10000 nM): 107%; cell viability ([12]; 1 nM): 94.1%; cell viability ([12]; 10 nM): 92.1%; cell viability ([12]; 100 nM): 92.5%; cell viability ([12]; 1000 nM): 96.4%; cell viability ([12]; 10000 nM): 94.7%; cell viability ([13]; 1 nM): 95.8%; cell viability ([13]; 10 nM): 101%; cell viability ([13]; 100 nM): 106%; cell viability ([13]; 1000 nM): 93.2%; cell viability ([13]; 10000 nM): 94.4%; cell viability ([14]; 1 nM): 95.8%; cell viability ([14]; 10 nM): 96.7%; cell viability ([14]; 100 nM): 93.6%; cell viability ([14]; 1000 nM): 97.1%; cell viability ([14]; 10000 nM): 93.5%; cell viability ([15]; 1 nM): 98.7%; cell viability ([15]; 10 nM): 98.8%; cell viability ([15]; 100 nM): 98.2%; cell viability ([15]; 1000 nM): 97.6%; cell viability ([15]; 10000 nM): 101%
